Test results taken from US5418239A, “Tricyclic heterocyclic compounds, their production and use” (Takeda Chemical Industries, Ltd., priority 1990, dated 1995).

Assays:
[1] = biological target: T1, Acyl-CoA:cholesterol transferase (ACAT) (Rattus norvegicus, UniProt Q7TQM4); assay: Acyl-CoA:cholesterol transferase (ACAT) inhibitory activity (labeled cholesterol ester production, small intestinal mucosal microsome fraction); assay type: biochemical, male sprague-Dawley rat; settings: rat small intestinal mucosal microsomes; for inhibition at 1 µM: 10^-6 M test compound, read-out: ACAT inhibition rate (%) (labeled cholesterol ester production inhibiting rate); for IC50: plotted at a plurality of concentration levels, read-out: IC50 (50% inhibitory concentration, ACAT)
T1 construct: small intestinal mucosal microsome fraction of a 6-week-old male sprague-Dawley rat; from tissue; host or cells: small intestinal mucosal microsome fraction, 6-week-old male Sprague-Dawley rat
T1 sequence (Q7TQM4 1-524): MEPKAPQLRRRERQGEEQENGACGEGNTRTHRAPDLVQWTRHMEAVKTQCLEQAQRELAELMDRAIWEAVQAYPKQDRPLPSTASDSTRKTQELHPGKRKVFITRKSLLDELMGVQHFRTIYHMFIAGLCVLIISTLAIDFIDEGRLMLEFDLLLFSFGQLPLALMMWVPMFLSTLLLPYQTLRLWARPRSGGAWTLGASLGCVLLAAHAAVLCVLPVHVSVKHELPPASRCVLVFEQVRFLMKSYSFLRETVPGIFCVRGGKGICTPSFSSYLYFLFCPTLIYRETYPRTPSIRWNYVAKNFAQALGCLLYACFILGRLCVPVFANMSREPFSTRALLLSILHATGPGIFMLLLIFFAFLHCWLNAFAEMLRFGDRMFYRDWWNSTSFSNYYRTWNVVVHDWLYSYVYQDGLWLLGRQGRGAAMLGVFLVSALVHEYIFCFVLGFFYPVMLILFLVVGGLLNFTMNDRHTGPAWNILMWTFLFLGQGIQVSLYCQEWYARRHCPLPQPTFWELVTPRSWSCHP
Experimental: Samples of ACAT enzyme were prepared from the small intestinal mucosal microsome fraction of a 6-week-old male sprague-Dawley rat fasted for 20 hours in accordance with the procedure described by Heider et al, Journal of Lipid Research 24, 1127 (1982).
ACAT activity was determined in accordance with the method of Helgerud et al., Journal of Lipid Research 22, 271 (1981), by measuring the amount of labeled cholesterol ester produced from [1-^14 C]oloyl-CoA and endogenous cholesterol.
The 50% inhibitory concentration (IC50) determined by plotting at a plurality of concentration levels is also shown.

plasma cholesterol = assay: Plasma cholesterol lowering activity in cholesterol-fed rats; assay type: in vivo, Male Sprague-Dawley rats; settings: 1% cholesterol diet containing 0.0003% test compound, 7 days; ingested about 0.23-0.24 mg/kg/day; mean ± S.D.; * p < 0.05 (t-test) against control group (181.8 ± 60.4)
Experimental: Male Sprague-Dawley rats aged 7 weeks were divided into groups based on body weight and put on a 1% cholesterol diet (the rat diet supplemented with 0.5% cholic acid and 5% olive oil) containing 0.0003% of the test compound for 7 days. The blood was sampled from surfeited rats between 8:30 and 10:00 a.m. and the plasma cholesterol concentration was enzymatically determined. The amount of the compound ingested was calculated from the food consumption.

| inhibition at 1 µM [1] [%] | IC50 [1] [nM] | SMILES | Plasma cholesterol (plasma cholesterol) [mg/dL] |
| --- | --- | --- | --- |
| 99.3 | 3.8 | O=C(Nc1ccc(F)cc1F)Nc1cnc2cc3c(cc2c1-c1ccccc1Cl)CCC3 [Example 1, N-[4-(2-chlorophenyl)-7,8-dihydro-6H-cyclopenta[g]quinolin-3-yl]-N'-(2,4-difluorophenyl)urea] | 80.8 ± 18.6 |
| 99.2 | 3.9 | Cc1ccccc1-c1c(NC(=O)Nc2ccc(F)cc2F)cnc2cc3c(cc12)CCC3 [Example 2, N-[7,8-Dihydro-4-(2-methylphenyl)-6H-cyclopenta[g]-quinolin-3-yl]-N'-(2,4-difluorophenyl)urea] | 78.5 ± 10.2 |
| 99.5 |  | Cc1ccccc1-c1c(NC(=O)Nc2ccc(F)cc2F)c(=O)oc2cc3c(cc12)CCC3 [Example 3, N-(2,4-difluorophenyl)-N'-[4-(2-methylphenyl)-2-oxo-2,6,7,8-tetrahydrocyclopenta[g][1]-benzopyran-3-yl]urea] | 78.1 ± 12.6 |
| 91.5 |  | O=C(Cc1ccc(F)cc1F)Nc1cnc2cc3c(cc2c1-c1ccccc1Cl)CCC3 [Example 4, 4-(2-chlorophenyl)-3-(2,4-difluorophenylacetylamino)-7,8-dihydro-6H-cyclopenta(g)quinoline] |  |
| 99 |  | CC(C)(C)c1cc(-c2c(NC(=O)Nc3ccc(F)cc3F)c(=O)oc3cc4c(cc23)CCC4)cc(C(C)(C)C)c1O [Example 8, N-[4-(3,5-di-tert-butyl-4-hydroxyphenyl)-2-oxo-2,6,7,8-tetrahydrocyclopenta[g] [1]benzopyran-3-yl]-N'-(2,4-difluorophenyl]urea] |  |
| 94.6 |  | Cc1ccccc1-c1c(NC(=O)Nc2ccc(N(C)C)cc2)c(=O)oc2cc3c(cc12)CCC3 [Example 9, N-(4-dimethylaminophenyl)-N'-[4-(2-methylphenyl)-2-oxo-2,6,7,8-tetrahydrocyclopenta[g] [1]benzo-pyran-3-yl]urea] |  |
| 98.7 |  | Cc1ccccc1-c1c(NC(=O)Nc2ccc(F)cc2F)c(=O)oc2cc3c(cc12)CCCC3 [Example 10, N-(2,4-difluorophenyl)-N'-[4-(2-methylphenyl)-6,7,8,9-tetrahydro-2-oxo-2H-naphtho[2,3-b]pyran-3-yl]urea] |  |
| 89.9 |  | COc1ccc(C=CC(=O)Nc2c(-c3ccccc3C)c3cc4c(cc3oc2=O)CCC4)cc1OC [Example 13, 3-(3,4-dimethoxycinnamoylamino) -4-(2-methylphenyl)-7,8-dihydrocyclopenta[g] 1benzopyran-2(6H)-one] |  |
| 89.6 |  | Cc1ccccc1-c1c(NC(=O)Cc2cc(C(C)(C)C)c(O)c(C(C)(C)C)c2)c(=O)oc2cc3c(cc12)CCC3 [Example 15, 3-(3,5-di-tert-butyl-4-hydroxyphenylacetylamino) -4-(2-methylphenyl)-7,8-dihydrocyclopenta-[g] [1]benzopyran-2(6H)-one] |  |
| 94.4 |  | COc1cc(NC(=O)Nc2c(-c3ccccc3C)c3cc4c(cc3oc2=O)CCC4)cc(OC)c1O [Example 16, N-(4-hydroxy-3,5-dimethoxyphenyl)-N'-[4-(2-methylphenyl)-2-oxo-2,6,7,8-tetrahydrocyclopenta [g] [1]benzopyran-3-yl]urea] |  |
| 97.6 |  | Cc1ccccc1-c1c(NC(=O)Nc2cc(C)c(O)c(C)c2)c(=O)oc2cc3c(cc12)CCC3 [Example 17, N-(4-hydroxy-3,5-dimethylphenyl)-N'-[4-(2-methylphenyl)-2-oxo-2,6,7,8-tetrahydrocyclopenta-[g] [1]benzopyran-3-yl]urea] |  |
| 86.9 |  | Cc1ccccc1-c1c(NC(=O)C=Cc2ccc(O)c(O)c2)c(=O)oc2cc3c(cc12)CCC3 [Example 18, 3-(3,4-dihydroxycinnamoylamino)-4-(2-methylphenyl)-7,8-dihydrocyclopenta [g] [1]benzopyran-2(6H)-one] |  |
| 98.2 |  | Cc1ccccc1-c1c(NC(=O)Nc2ccc(F)cc2F)c(=O)n(C)c2cc3c(cc12)CCC3 [Example 19, N-(2,4-difluorophenyl)-N'-[1-methyl-4-(2-methylphenyl)-2-oxo-l,2,7,8-tetrahydro-6H-cyclopenta-[g]quinolin-3-yl]urea] |  |

| SMILES | inhibition at 1 µM [1] [%] | IC50 [1] [nM] | Plasma cholesterol (plasma cholesterol) [mg/dL] |
| --- | --- | --- | --- |
| COc1nc2cc3c(cc2c(-c2ccccc2Cl)c1NC(=O)Nc1cc(C)c(OC(C)=O)c(C)c1)CCC3 [Example 11, N-(4-acetoxy-3,5-dimethylphenyl)-N'-[4-(2-chlorophenyl)-7,8-dihydro-2-methoxy-6H-cyclopenta[g]-quinolin-3-yl]urea] | 75.6 |  |  |
| CC(=O)Oc1c(C)cc(NC(=O)Nc2c(-c3ccccc3C)c3cc4c(cc3n(C)c2=O)CCC4)cc1C [Example 12, N-(4-acetoxy-3,5-dimethylphenyl)-N'-[1-methyl-4-(2-methylphenyl)-2-oxo-l,2,7,8-tetrahydro-6H-cyclopenta[g]quinolin-3-yl]urea] | 91.1 |  |  |
